Test results: paper PMC4619380, “Nicotinic Activity of Arecoline, the Psychoactive Element of "Betel Nuts", Suggests a Basis for Habitual Use and Anti-Inflammatory Activity” (PLoS ONE, 2015)
Entries after “also recorded” stand apart in the source; their conditions may differ. Where two headings read alike, the source gives them in different places. Marks after values point to notes of the source that are not given here.

Legend:
[1] = parameters: method as in PMID 20412403; conditions: 90% of betel chewers, prior to chewing; cited from earlier work
[2] = molecular target: T1, LS α4(3)β2(2) nAChR (Homo sapiens, UniProt P17787+P43681); assay: Two-electrode voltage clamp of Xenopus oocytes expressing low sensitivity α4β2 nAChR (β2-α4 concatamer plus α4 monomer); format: cell-based
T1 construct: host or cells: Xenopus laevis oocytes injected with cRNA
Procedure: (§1) Human nAChR clones and concatamers were obtained from Dr. J. Lindstrom (University of Pennsylvania, Philadelphia, PA). The human resistance-to-cholinesterase 3 (RIC-3) clone, obtained from Dr. M. Treinin (Hebrew University, Jerusalem, Israel), was co-injected with α7 to improve the level and speed of α7 receptor expression without affecting the pharmacological properties of the receptors. Subsequent to linearization and purification of the plasmid cDNAs, cRNAs were prepared using the mMessage mMachine in vitro RNA transfection kit (Ambion, Austin, TX). […]
(§2) Experiments were conducted using OpusXpress 6000A (Molecular Devices, Union City, CA). […] The responses of α4β2 and α3β4-expressing cells were measured as peak current amplitudes, and the α7 data were calculated as net charge, as previously described.
(§3) Data were collected at 50 Hz, filtered at 20 Hz, analyzed by Clampfit 9.2 (Molecular Devices) and Excel 2003 (Microsoft, Redmond, WA), and normalized to the averaged peak current or net-charge response of the two initial ACh controls for each oocyte. Data were expressed as means ± SEM from at least four oocytes for each experiment and plotted by Kaleidagraph 3.0.2 (Abelbeck Software, Reading, PA). Multi-cell averages were calculated for comparisons of complex responses. […]

[3] = molecular target: T2, HS α4(2)β2(3) nAChR (Homo sapiens, UniProt P17787+P43681); assay: Two-electrode voltage clamp of Xenopus oocytes expressing high sensitivity α4β2 nAChR (β2-α4 concatamer plus β2 monomer); format: cell-based
T2 construct: host or cells: Xenopus laevis oocytes injected with cRNA
Procedure: (§4) Human nAChR clones and concatamers were obtained from Dr. J. Lindstrom (University of Pennsylvania, Philadelphia, PA). The human resistance-to-cholinesterase 3 (RIC-3) clone, obtained from Dr. M. Treinin (Hebrew University, Jerusalem, Israel), was co-injected with α7 to improve the level and speed of α7 receptor expression without affecting the pharmacological properties of the receptors. Subsequent to linearization and purification of the plasmid cDNAs, cRNAs were prepared using the mMessage mMachine in vitro RNA transfection kit (Ambion, Austin, TX).
(§5) Oocytes were surgically removed from mature Xenopus laevis frogs (Nasco, Ft. Atkinson, WI) and injected with appropriate nAChR subunit cRNAs as described previously. Frogs were maintained in the Animal Care Service facility of the University of Florida, and all procedures were approved by the University of Florida Institutional Animal Care and Use Committee. In brief, the frog was first anesthetized for 15–20 min in 1.5 L frog tank water containing 1 g of 3-aminobenzoate methanesulfonate buffered with sodium bicarbonate. […]
as §2
Data were collected at 50 Hz, filtered at 20 Hz, analyzed by Clampfit 9.2 (Molecular Devices) and Excel 2003 (Microsoft, Redmond, WA), and normalized to the averaged peak current or net-charge response of the two initial ACh controls for each oocyte. Data were expressed as means ± SEM from at least four oocytes for each experiment and plotted by Kaleidagraph 3.0.2 (Abelbeck Software, Reading, PA). Multi-cell averages were calculated for comparisons of complex responses. […] Averages of the normalized data were calculated for each of the 10,500 points in each of the 210 s traces (acquired at 50 Hz), as well as the standard errors for those averages. […]

[4] = molecular target: T3, α6β2β3α4β2 concatamer nAChR (Homo sapiens, UniProt P17787+P43681+Q15825); assay: Two-electrode voltage clamp of Xenopus oocytes expressing the α6-containing concatamer; format: cell-based
Procedure: as §4, §5, §2
Data were collected at 50 Hz, filtered at 20 Hz, analyzed by Clampfit 9.2 (Molecular Devices) and Excel 2003 (Microsoft, Redmond, WA), and normalized to the averaged peak current or net-charge response of the two initial ACh controls for each oocyte. Data were expressed as means ± SEM from at least four oocytes for each experiment and plotted by Kaleidagraph 3.0.2 (Abelbeck Software, Reading, PA). Multi-cell averages were calculated for comparisons of complex responses. […] Averages of the normalized data were calculated for each of the 10,500 points in each of the 210 s traces (acquired at 50 Hz), as well as the standard errors for those averages.

[5] = molecular target: T4, human α7 nAChR (Homo sapiens, UniProt P36544); assay: Two-electrode voltage clamp of Xenopus oocytes expressing α7 nAChR (co-injected with RIC-3); format: cell-based; conditions: for EC50: normalized to 60 μM ACh controls; for activation of α7 when applied alone (absence of PAM): no PNU-120596, compared to 60 μM ACh controls; for activation of α7 in the presence of PNU-120596: co-applied with 10 μM PNU-120596
T4 construct: host or cells: Xenopus laevis oocytes injected with cRNA
Procedure: as §4
Oocytes were surgically removed from mature Xenopus laevis frogs (Nasco, Ft. Atkinson, WI) and injected with appropriate nAChR subunit cRNAs as described previously. Frogs were maintained in the Animal Care Service facility of the University of Florida, and all procedures were approved by the University of Florida Institutional Animal Care and Use Committee. In brief, the frog was first anesthetized for 15–20 min in 1.5 L frog tank water containing 1 g of 3-aminobenzoate methanesulfonate buffered with sodium bicarbonate. The harvested oocytes were treated with 1.25 mg/ml collagenase (Worthington Biochemicals, Freehold, NJ) for 2 h at room temperature in calcium-free Barth’s solution (88 mM NaCl, 1 mM KCl, 2.38 mM NaHCO3, 0.82 mM MgSO4, 15 mM HEPES, and 12 mg/l tetracycline, pH 7.6) to remove the follicular layer. Stage V oocytes were subsequently isolated and injected with 50 nl of 5–20 ng nAChR subunit cRNA. Recordings were carried out 1–7 days after injection.
Experiments were conducted using OpusXpress 6000A (Molecular Devices, Union City, CA). Both the voltage and current electrodes were filled with 3 M KCl. Oocytes were voltage-clamped at -60 mV. The oocytes were bath-perfused with Ringer’s solution (115 mM NaCl, 2.5 mM KCl, 1.8 mM CaCl2, 10 mM HEPES, and 1 μM atropine, pH 7.2) at 2 ml/min for α7 receptors and at 4 ml/min for other subtypes. To evaluate the effects of experimental compounds compared to ACh-evoked responses of various nAChR subtypes expressed in oocytes, baseline conditions were defined by two initial applications of ACh made before test applications. The solutions were applied from a 96-well plate via disposable tips, and the test compounds were applied alone, co-applied with ACh, or co-applied with PNU-120596. For the concentration-response study, drug applications alternated between ACh controls and experimental compounds. Unless otherwise indicated, drug applications were 12 s in duration followed by a 181 s washout period for α7 receptors and 6 s with a 241 s washout for other subtypes. A typical recording for each oocyte constituted two initial control applications of ACh, an experimental compound application, and then a follow-up control application of ACh to determine the desensitization or rundown of the receptors. The control ACh concentrations were 60 μM for α7, 100 μM for α3β4, and 30 μM for α4β2. The responses of α4β2 and α3β4-expressing cells were measured as peak current amplitudes, and the α7 data were calculated as net charge, as previously described.
Data were collected at 50 Hz, filtered at 20 Hz, analyzed by Clampfit 9.2 (Molecular Devices) and Excel 2003 (Microsoft, Redmond, WA), and normalized to the averaged peak current or net-charge response of the two initial ACh controls for each oocyte. Data were expressed as means ± SEM from at least four oocytes for each experiment and plotted by Kaleidagraph 3.0.2 (Abelbeck Software, Reading, PA). Multi-cell averages were calculated for comparisons of complex responses. To permit better comparisons between experiments each single cell response was normalized to the average of the two initial controls obtained from that cell. Averages of the normalized data were calculated for each of the 10,500 points in each of the 210 s traces (acquired at 50 Hz), as well as the standard errors for those averages.

[6] = tested on: α4β2 nAChR (mixed populations formed from monomers); assay: Two-electrode voltage clamp of Xenopus oocytes expressing α4β2 nAChR formed from monomers; format: cell-based, human; conditions: 100 μM arecoline; α4 and β2 monomers
Procedure: as §1, §2, §3

[7] = molecular target: T2, HS α4(2)β2(3) nAChR; conditions: cited from earlier work
[8] = molecular target: T1, LS α4(3)β2(2) nAChR; conditions: cited from earlier work
[9] = molecular target: T3, α6β2β3α4β2 concatamer nAChR; parameters: method as in PMID 20923852; conditions: cited from earlier work
[10] = 100 μM arecoline co-applied with 10 μM PNU-120596, 60 μM ACh controls, n = 7
[11] = co-applied with 30 μM PNU-120596, relative to 60 μM ACh controls

T3 sequence (Q15825 26-494): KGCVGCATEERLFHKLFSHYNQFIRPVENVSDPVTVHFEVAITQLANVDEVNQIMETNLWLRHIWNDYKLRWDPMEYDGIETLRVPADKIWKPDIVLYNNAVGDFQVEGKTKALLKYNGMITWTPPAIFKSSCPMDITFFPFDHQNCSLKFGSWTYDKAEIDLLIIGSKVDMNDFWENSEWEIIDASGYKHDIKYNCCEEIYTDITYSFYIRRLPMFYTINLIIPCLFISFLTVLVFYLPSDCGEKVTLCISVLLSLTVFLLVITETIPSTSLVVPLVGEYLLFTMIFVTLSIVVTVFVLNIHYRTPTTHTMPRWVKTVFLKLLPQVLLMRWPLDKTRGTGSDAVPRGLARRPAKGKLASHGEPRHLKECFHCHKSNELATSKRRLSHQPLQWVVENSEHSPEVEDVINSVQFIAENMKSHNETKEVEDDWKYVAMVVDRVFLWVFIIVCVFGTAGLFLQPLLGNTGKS
T3 sequence (P17787 26-502): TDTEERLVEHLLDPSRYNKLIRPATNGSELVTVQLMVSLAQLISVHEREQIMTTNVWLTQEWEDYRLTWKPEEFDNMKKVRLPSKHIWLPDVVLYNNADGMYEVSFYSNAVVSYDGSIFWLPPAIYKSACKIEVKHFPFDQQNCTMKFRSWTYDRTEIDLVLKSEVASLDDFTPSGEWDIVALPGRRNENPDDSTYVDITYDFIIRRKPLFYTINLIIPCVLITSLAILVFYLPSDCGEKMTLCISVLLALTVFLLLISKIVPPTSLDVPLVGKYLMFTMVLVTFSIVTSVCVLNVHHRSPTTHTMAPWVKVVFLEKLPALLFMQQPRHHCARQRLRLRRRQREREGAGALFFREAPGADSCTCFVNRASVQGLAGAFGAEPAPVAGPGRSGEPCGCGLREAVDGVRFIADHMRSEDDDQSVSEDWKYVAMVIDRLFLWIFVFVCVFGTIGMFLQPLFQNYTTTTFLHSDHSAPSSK
T3 sequence (P43681 27-627): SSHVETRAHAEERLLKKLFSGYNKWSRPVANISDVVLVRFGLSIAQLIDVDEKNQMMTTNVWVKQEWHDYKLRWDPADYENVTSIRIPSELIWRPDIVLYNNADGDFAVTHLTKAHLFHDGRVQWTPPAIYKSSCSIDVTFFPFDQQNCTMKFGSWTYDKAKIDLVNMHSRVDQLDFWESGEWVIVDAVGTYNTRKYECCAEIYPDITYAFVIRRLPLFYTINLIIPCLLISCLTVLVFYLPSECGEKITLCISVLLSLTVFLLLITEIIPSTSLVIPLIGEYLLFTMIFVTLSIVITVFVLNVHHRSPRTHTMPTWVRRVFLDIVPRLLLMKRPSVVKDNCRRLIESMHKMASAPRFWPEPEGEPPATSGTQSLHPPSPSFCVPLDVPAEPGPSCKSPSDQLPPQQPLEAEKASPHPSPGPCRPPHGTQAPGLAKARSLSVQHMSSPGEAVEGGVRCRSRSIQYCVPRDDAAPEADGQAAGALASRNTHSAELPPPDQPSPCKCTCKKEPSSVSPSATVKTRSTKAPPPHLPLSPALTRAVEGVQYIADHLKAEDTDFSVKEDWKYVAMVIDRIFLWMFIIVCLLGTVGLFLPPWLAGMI
T3 sequence (Q05901 22-458 partner): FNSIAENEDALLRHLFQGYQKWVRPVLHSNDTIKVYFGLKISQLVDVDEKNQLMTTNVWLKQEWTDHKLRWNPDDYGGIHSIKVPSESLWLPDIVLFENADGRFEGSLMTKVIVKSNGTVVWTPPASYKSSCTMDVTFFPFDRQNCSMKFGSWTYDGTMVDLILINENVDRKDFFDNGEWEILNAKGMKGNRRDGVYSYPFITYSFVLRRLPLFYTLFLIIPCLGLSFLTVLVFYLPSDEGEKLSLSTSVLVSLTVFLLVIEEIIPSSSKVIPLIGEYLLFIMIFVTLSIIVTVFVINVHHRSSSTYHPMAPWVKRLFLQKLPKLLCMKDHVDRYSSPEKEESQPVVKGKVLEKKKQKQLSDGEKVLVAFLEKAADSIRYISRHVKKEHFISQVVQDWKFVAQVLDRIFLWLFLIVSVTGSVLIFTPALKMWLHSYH
T1 sequence (P17787+P43681 fused): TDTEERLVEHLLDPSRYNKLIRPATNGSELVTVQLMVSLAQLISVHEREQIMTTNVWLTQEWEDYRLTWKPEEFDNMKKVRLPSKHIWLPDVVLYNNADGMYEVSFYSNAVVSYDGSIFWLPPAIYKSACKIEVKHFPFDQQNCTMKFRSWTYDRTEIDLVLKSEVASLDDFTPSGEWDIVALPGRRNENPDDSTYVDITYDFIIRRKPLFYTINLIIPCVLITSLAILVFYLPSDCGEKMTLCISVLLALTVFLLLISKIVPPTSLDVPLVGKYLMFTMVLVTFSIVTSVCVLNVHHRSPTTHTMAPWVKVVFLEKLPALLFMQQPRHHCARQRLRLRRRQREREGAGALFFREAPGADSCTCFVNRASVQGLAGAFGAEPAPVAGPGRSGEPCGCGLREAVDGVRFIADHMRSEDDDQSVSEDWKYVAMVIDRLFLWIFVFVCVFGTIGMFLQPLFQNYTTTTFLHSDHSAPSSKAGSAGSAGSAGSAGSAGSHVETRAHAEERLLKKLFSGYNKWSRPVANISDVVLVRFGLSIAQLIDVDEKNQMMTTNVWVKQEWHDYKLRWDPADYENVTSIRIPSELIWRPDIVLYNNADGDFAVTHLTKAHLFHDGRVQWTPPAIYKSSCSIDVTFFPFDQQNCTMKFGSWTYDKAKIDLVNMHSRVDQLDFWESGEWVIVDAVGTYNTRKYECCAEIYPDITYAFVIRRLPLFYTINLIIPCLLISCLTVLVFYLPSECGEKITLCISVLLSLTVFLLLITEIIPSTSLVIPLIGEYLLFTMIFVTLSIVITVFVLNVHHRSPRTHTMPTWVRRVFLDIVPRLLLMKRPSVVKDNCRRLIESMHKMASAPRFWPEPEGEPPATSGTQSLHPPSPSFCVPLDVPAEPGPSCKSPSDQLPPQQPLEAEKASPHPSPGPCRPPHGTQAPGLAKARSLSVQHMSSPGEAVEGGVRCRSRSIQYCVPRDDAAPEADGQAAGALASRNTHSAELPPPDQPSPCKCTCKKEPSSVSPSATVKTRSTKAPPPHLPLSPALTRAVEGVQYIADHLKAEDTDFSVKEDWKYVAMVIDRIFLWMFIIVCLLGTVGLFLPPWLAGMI
T1 sequence (P43681 27-627): as the sequence (P43681 27-627) above
T2 sequence (P17787+P43681 fused): as the sequence (P17787+P43681 fused) above
T2 sequence (P17787 26-502): as the sequence (P17787 26-502) above
T4 sequence (P36544 23-502): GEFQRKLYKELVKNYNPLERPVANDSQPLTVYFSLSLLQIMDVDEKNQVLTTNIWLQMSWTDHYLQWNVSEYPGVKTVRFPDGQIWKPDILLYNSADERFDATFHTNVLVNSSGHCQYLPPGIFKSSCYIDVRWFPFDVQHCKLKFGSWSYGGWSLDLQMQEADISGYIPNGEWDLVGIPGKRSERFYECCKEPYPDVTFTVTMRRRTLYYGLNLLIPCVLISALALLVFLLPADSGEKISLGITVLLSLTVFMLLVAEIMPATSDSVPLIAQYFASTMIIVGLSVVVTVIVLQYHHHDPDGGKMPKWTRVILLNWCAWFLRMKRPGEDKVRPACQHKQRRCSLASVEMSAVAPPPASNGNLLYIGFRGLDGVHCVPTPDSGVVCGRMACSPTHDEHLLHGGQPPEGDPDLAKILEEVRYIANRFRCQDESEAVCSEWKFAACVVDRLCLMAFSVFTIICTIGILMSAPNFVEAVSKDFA

## COC(=O)C1=CCCN(C)C1 [arecoline]
[1]
  residual salivary level of arecoline: at least 400 nM
[2]; LS α4β2, responses relative to ACh maximum
  EC50: 75 ± 7 µM
[2]; α4(3)β2(2)
  Imax relative to ACh: 0.036 ± 0.003
[3]; HS α4β2, responses relative to ACh maximum
  EC50: 14 ± 3 µM
[3]; prolonged bath application of 3 μM arecoline, revealed with 100 μM mecamylamine, seven cells
  mecamylamine-sensitive steady-state activation relative to ACh maximum: ~1%
[3]; α4(2)β2(3)
  Imax relative to ACh: 0.054 ± 0.004
[4]; 100 μM arecoline
  response to arecoline (activation): small but significant activity; also recorded: substantially larger and well above the threshold of detection
[4]; α6-containing receptor, responses relative to ACh maximum
  EC50: 21 ± 4 µM
[4]; α6β2β3α4β2
  Imax relative to ACh: 0.056 ± 0.003
[5]; 60 μM ACh applied after the test application and wash
  effect on subsequent ACh-evoked responses: largely unaffected
[5]; 100 μM arecoline applied alone, extrapolated from ACh controls and earlier ACh concentration-response studies
  response relative to ACh maximum: less than 1%
[5]; [10]
  net charge of response relative to ACh controls: 37 ± 10 times
  peak amplitude of response relative to ACh controls: 9.6 ± 3.4 times
[5]; co-applied with 30 μM PNU-120596, read-out: EC50, net charge
  EC50: 93 ± 2 µM
[5]; co-applied with 30 μM PNU-120596, read-out: EC50, peak currents
  EC50: 60 ± 7 µM
[5]; [11]
  Imax relative to ACh controls, net charge: 49 ± 1
  Imax relative to ACh controls, peak currents: 15 ± 1
[5]
  activation of α7 when applied alone (absence of PAM): did not produce significant activation
[5]; simple co-application with 60 μM ACh, no PAM, read-out: IC50 for inhibiting 60 μM ACh-evoked responses
  IC50: > 1000 µM
[6]
  response to arecoline (activation): small but significant activity; also recorded: substantially larger and well above the threshold of detection

## C[N+](C)(C)CCOC(N)=O [carbachol, reference compound]
[5]
  activation of α7 in the presence of PNU-120596: stimulated α7 receptors under both conditions
  activation of α7 when applied alone (absence of PAM): stimulated α7 receptors under both conditions

## O=c1cccc2n1C[C@@H]1CNC[C@H]2C1 [cytisine]
[7]
  Imax relative to ACh: ≤ 0.05 ^a
[8]
  Imax relative to ACh: 0.10 ± 0.02 ^a
[9]
  Imax relative to ACh: 0.11 ± 0.03 ^c

## CC(=O)OC(C)C[N+](C)(C)C (stereo not shown) [methacholine, reference compound]
[5]
  activation of α7 in the presence of PNU-120596: not as active as arecoline
  activation of α7 when applied alone (absence of PAM): silent agonist

## C[C@@H]1O[C@H](C[N+](C)(C)C)C[C@H]1O [muscarine, reference compound]
[5]
  activation of α7 in the presence of PNU-120596: failed to activate the receptors under either condition
  activation of α7 when applied alone (absence of PAM): failed to activate the receptors under either condition

## O=C1CCCN1CC#CCN1CCCC1 [oxotremorine, reference compound]
[5]
  activation of α7 in the presence of PNU-120596: relatively little additional activation
  activation of α7 when applied alone (absence of PAM): small but significant activation

## c1cnc2cc3c(cc2n1)[C@@H]1CNC[C@H]3C1 [varenicline]
[7]
  Imax relative to ACh: 0.13 ^b
[8]
  Imax relative to ACh: 0.08 ^b
[9]
  Imax relative to ACh: 0.18 ± 0.11 ^c
